Five compounds from patent EP3958980B1, “TARGETED NOVEL TRIAZOLOTHIADIAZINE DERIVATIVES FOR THE TREATMENT OF LUNG CANCER” (Anadolu Universitesi, priority 2020, dated 2021) can be followed below.

The structures appear in SMILES notation. Where “and” joins values, the source holds several entries; their conditions need not be identical. Equal entries are not always repeated.

The test system of data set [1] is A549 cells. Briefly: Annexin V FITC / PI flow cytometry (apoptosis). The format is cell-based, human. The settings on record: IC50 concentrations; for Early apoptotic cells% / Late apoptotic cells% / Necrosis% / Viable cells%: 24 hours; for early and late apoptotic effects: sum of early and late apoptotic cells. On the procedure:
Briefly, after the cells were centrifuged for 4 minutes at 800 rpm, they were washed twice with 1 × PBS and were suspended in the 1 × Annexin-V binding solution at a concentration of 2-3 × 10^6 cell/mL and then 100 µL of the cell solution was transferred into tubes. Then, 5 µL of Annexin-V Fluorescein isothiocyanate (FITC) and 10 µL of propidium iodide (PI) solution were added to each tube, after incubation for 15 minutes at room temperature, 400 µL × Annexin-V binding solution was added to each tube and the cells were analyzed by flow cytometry (BD FACSCalibur™) within 1 hour. The early and late apoptotic cell percentages were calculated according to positive control.

In data set [2] the test system is Akt. Briefly: Akt colorimetric in cell ELISA in A549 cells. The conditions noted are these: 24 hours; for Akt inhibition (in words): compared to cisplatin and GSK690693. The format is cell-based, human. On the procedure: After 10.000 cells were seeded in the wells, they were kept in the incubator for 24 hours. […] Briefly, the medium was removed from the wells and 100 µL of 4% formaldehyde was added. The plate was incubated in a fume hood for 15 minutes. Formaldehyde was removed and the plate was washed twice with 1X […] (TBS) such as to be 100 µL/well. 1X TBS was removed and 100 µL 1X permeabilization solution was added to each well and it was kept at room temperature for 15 minutes. After the 1X permeabilization solution was removed, the wells were washed with 100 µL 1X TBS once. 1X TBS was removed and 100 µL quenching solution was added to each well and it was kept at room temperature for 20 minutes. Afterwards, this solution was removed. The plate was washed 1 time with 1X TBS and 100 µL blocking solution was added to the wells and it was kept at room temperature for 30 minutes. At the end of this period, the blocking solution was removed and 50 µL primary antibody was added to the wells. The plate was sealed with a cover and it was incubated overnight at 4 °C. The primary antibody was removed and the plate wells were washed 3 times with 100 µL 1X washing solution. After the washing solution was removed, 100 µL diluted horseradish peroxidase (HRP) conjugate was added and it was incubated at room temperature for 30 minutes. Later on this conjugate was removed and 100 µL 3,3',5,5'-tetramethylbenzidine (TMB) […] was added to each well and the absorbance values were read at 450 nm for 30 minutes. The experiment was carried out in triplicate. The values of the blank wells were subtracted from the values of the untreated control and treated cells. The Akt activity% was determined as the relative absorbance of treated versus untreated control cells.

Setting [3] is: IC50/2 concentration (9: 2.88; 11: 0.37; 12: 0.40; 14: 1.32; GSK690693: 3.34; Cisplatin: 11.50 µg/mL).
The mark [4] stands for this setting: IC50/4 concentration (9: 1.44; 11: 0.18; 12: 0.20; 14: 0.66; GSK690693: 1.69; Cisplatin: 5.75 µg/mL).
[5] abbreviates: IC50 concentration (9: 5.75; 11: 0.73; 12: 0.80; 14: 2.63; GSK690693: 6.75; Cisplatin: 23.00 µg/mL).

Regarding `N.N.[Cl][Pt][Cl]` [Cisplatin, reference compound], in data set [1], the Early apoptotic cells% is on record as 14.70%; the Late apoptotic cells% worked out at 30.10%; the Necrosis% came out at 28.70%; the “early and late apoptotic effects” value turned out to be 44.80%. Further, the “Akt Inhibition%” value in data set [2] (setting [3]) was 56.23±1.45%. The “Akt Inhibition%” value in data set [2] (setting [4]) came out at 50.46±6.89%. Moreover, in data set [2] (setting [5]), the “Akt Inhibition%” value amounted to 59.55±8.44%. Moreover, the “Akt Inhibition%” value in data set [2] (IC50 concentration (9: 5.75; 11: 0.73; 12: 0.80; 14: 2.63; GSK690693: 6.75; Cisplatin: 23.00 µg/mL), listed as cisplatin) was 59.55%.
In data set [1], `CS(=O)(=O)c1ccc(C2=Nn3c(CCc4ccc5c(c4)OCO5)nnc3SC2)cc1` [Compound 9] registered an Early apoptotic cells% of 5.00%, a Late apoptotic cells% of 16.20%, a Necrosis% of 6.30% and a Viable cells% of 72.50%. For the same compound, in data set [1], the “early and late apoptotic effects” value is recorded as 21.20%. In addition, the “Akt Inhibition%” value in data set [2] (setting [3]) is on record as 7.31±1.48%. The “Akt Inhibition%” value in data set [2] (setting [4]) came to 15.99±1.06%. For the same compound, the “Akt Inhibition%” value in data set [2] (setting [5]) is 45.47% and 45.47±3.76%. For the same compound, the “Akt inhibition (in words)” value in data set [2] is given as “moderate Akt inhibition”.
In data set [1], `FC(F)(F)c1ccc(C2=Nn3c(CCc4ccc5c(c4)OCO5)nnc3SC2)cc1` [Compound 11, 3-[2-(1,3-Benzodioxole-5-yl)ethyl]-6-(4-trifluoromethylphenyl)-7H-[1,2,4]triazolo [3,4-b][1,3,4]thiadiazine] yielded an Early apoptotic cells% of 2.90%, a Late apoptotic cells% of 9.90%, a Necrosis% of 14.80% and a Viable cells% of 72.30%. For the same compound, in data set [1], the “early and late apoptotic effects” value came to 12.80%. The “Akt Inhibition%” value in data set [2] (setting [3]) came out at 6.66±3.51%. Further, in data set [2] (setting [4]), the “Akt Inhibition%” value was 0.91±1.29%. In addition, in data set [2] (setting [5]), the “Akt Inhibition%” value turned out to be 8.18±3.74%. The “Akt inhibition (in words)” value in data set [2] is recorded as “did not exhibit significant Akt inhibition”.
Regarding `Fc1cccc(C2=Nn3c(CCc4ccc5c(c4)OCO5)nnc3SC2)c1` [Compound 12, 3-[2-(1,3-Benzodioxole-5-yl)ethyl]-6-(3-fluorophenyl)-7H-[1,2,4]triazolo [3,4-b] [1,3,4]thiadiazine], in data set [1], the Early apoptotic cells% was found to be 4.80%, the Late apoptotic cells% worked out at 29.70%, the Necrosis% was determined as 40.80% and the Viable cells% is on record as 24.70%. Moreover, the “early and late apoptotic effects” value in data set [1] was 34.50% and 25.90%. In data set [2] (setting [3]), the “Akt Inhibition%” value was 16.67±0.05%. Besides, in data set [2] (setting [4]), the “Akt Inhibition%” value worked out at 19.24±2.43%. Further, the “Akt Inhibition%” value in data set [2] (setting [5]) was 46.87% and 46.87±4.60%. Moreover, the “Akt inhibition (in words)” value in data set [2] is “moderate Akt inhibition”.
In the case of `c1ccc(-c2ccc(C3=Nn4c(CCc5ccc6c(c5)OCO6)nnc4SC3)cc2)cc1` [Compound 14, 3-[2-(1,3-Benzodioxole-5-yl)ethyl]-6-(biphenyl-4-yl)-7H-[1,2,4]triazolo[3,4-b] [1,3,4]thiadiazine], in data set [1], the Early apoptotic cells% is recorded as 4.20%, the Late apoptotic cells% was 21.70%, the Necrosis% worked out at 34.60% and the Viable cells% is listed as 39.50%. For the same compound, the “early and late apoptotic effects” value in data set [1] is 25.90% and 34.50%. For the same compound, the “Akt Inhibition%” value in data set [2] (setting [3]) amounted to 15.99±3.66%. In data set [2] (setting [4]), the “Akt Inhibition%” value was determined as 23.51±3.00%. The “Akt Inhibition%” value in data set [2] (setting [5]) is 44.30% and 44.30±5.68%. In data set [2], the “Akt inhibition (in words)” value is recorded as “moderate Akt inhibition”.
